Measured values published in US20160238590A1, “COMPOSITIONS AND METHODS RELATED TO OAT SENSITIVITY” (IMMUSANT, INC., priority 2013, published 2016).
Where no end group is shown, it is not given here. [ ]: non-standard residue; d: D form. pGlu = O=C1CC[C@@H](C(=O)O)N1

Assays:
Assay type in all cases: cell-based, human
PBMC [1] = experiment: IFN-γ ELISpot on PBMC of CD patients on day 6 after 3-day oats challenge; conditions: after 3-day oats challenge
Procedure, shortened: (§1)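 PBMC from HLA-DQ2.5+/DQ8+ biopsy-proven coeliac patients on gluten-free diet ≥4 weeks, collected on day 6 after starting a 3-day oral challenge (oats 100 g/day, barley 150 g/day, or wheat/barley/rye muffins 22-25 g each daily). Responses to avenin, hordein and gluten peptide libraries, some deamidated or tTG-treated, measured by IFN-γ ELISpot.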

Patient 2 TCC-01 = experiment: IFN-γ ELISpot with T cell clone
Experimental: (§2) Peripheral blood mononuclear cells (PBMC) were isolated from heparinized whole blood using Ficoll-Paque™ Plus density-gradient centrifugation (GE Healthcare). IFN-γ ELISpot (Mabtech) was set up as previously described^8.
(§3) Isolation of TCC from CD patients was carried out as previously described^8. Briefly, CFSE-labeled PBMC were incubated with antigen for 7 days in IMDM supplemented with 5% heat-inactivated pooled human serum (PHS), 2 mM GlutaMAX™, 100 μM MEM non-essential amino acids (both from Gibco, Invitrogen), and 50 μM 2-mercaptoethanol (Sigma). Proliferated cells were single-cell sorted into 96-well plates containing IL-2, IL-4, anti-CD3 mAb, irradiated feeder cells (allogeneic PBMC and JY-EBV). TCC were expanded and maintained in IL-2 and IL-4 and tested for specificity by ELISpot with irradiated HLA-matched PBMC as antigen-presenting cells. Expanded clones were tested for HLA-DQ restriction, TCR Vbeta usage, and with lysine scans to work out minimal epitopes. See Table 1 below for TCC and epitope information.

Patient 6 TCC-01 = experiment: IFN-γ ELISpot with T cell clone
Experimental: as §2, §3

Patient 2 TCC-02 = experiment: IFN-γ ELISpot with T cell clone
Experimental: as §2, §3

Patient 8 TCC-01 = experiment: IFN-γ ELISpot with T cell clone; conditions: TCC Patient 8 TCC-01, peptide 25 μg/mL
Experimental: as §2, §3

Patient 2 TCC-03 = experiment: IFN-γ ELISpot with T cell clone; conditions: TCC Patient 2 TCC-03, peptide 25 μg/mL
Experimental: as §2, §3

Patient 9 TCC-01 = experiment: IFN-γ ELISpot with T cell clone; conditions: TCC Patient 9 TCC-01, peptide 50 μg/mL
Experimental: as §2, §3

Patient 14 TCC-01 = experiment: IFN-γ ELISpot with T cell clone; conditions: TCC Patient 14 TCC-01, peptide 50 μg/mL
Experimental: as §2, §3

Patient 9 TCC-02 = experiment: IFN-γ ELISpot with T cell clone; conditions: TCC Patient 9 TCC-02, peptide 50 μg/mL
Experimental: as §2, §3

Patient 10 TCC-01 = experiment: IFN-γ ELISpot with T cell clone; conditions: TCC Patient 10 TCC-01, peptide 50 μg/mL
Experimental: as §2, §3

PBMC [2] = experiment: IFN-γ ELISpot on PBMC of CD patients after 3-day barley challenge
Procedure, shortened: as §1

[3] = TCC Patient 2 TCC-01, peptide 25 μg/mL
[4] = TCC Patient 6 TCC-01, peptide 25 μg/mL
[5] = TCC Patient 2 TCC-02, peptide 25 μg/mL
[6] = TCC Patient 2 TCC-01, peptide 50 μg/mL
[7] = TCC Patient 6 TCC-01, peptide 50 μg/mL

Sequence: QYQPYPEQEEPFVQQQ
- IFN-γ ELISpot response (raw SFU) (PBMC [1]; patient P1, peptide 1 μg/ml): 8 SFU
- IFN-γ ELISpot response (raw SFU) (PBMC [1]; patient P1, peptide 10 μg/ml): 15 SFU
- significant SFU as a percentage of maximal peptide SFU (PBMC [1]; patient P1, peptide 10 μg/ml): ** (**: 40-70%)
- IFN-γ ELISpot response (raw SFU) (PBMC [1]; patient P1, peptide 100 μg/ml): 5 SFU
- IFN-γ ELISpot response (raw SFU) (PBMC [1]; patient P2, peptide 1 μg/ml): 7 SFU
- IFN-γ ELISpot response (raw SFU) (PBMC [1]; patient P2, peptide 10 μg/ml): 12 SFU
- significant SFU as a percentage of maximal peptide SFU (PBMC [1]; patient P2, peptide 10 μg/ml): * (*: 20-40%)
- IFN-γ ELISpot response (raw SFU) (PBMC [1]; patient P2, peptide 100 μg/ml): 20 SFU
- significant SFU as a percentage of maximal peptide SFU (PBMC [1]; patient P2, peptide 100 μg/ml): * (*: 20-40%)
- IFN-γ ELISpot response (raw SFU) (PBMC [1]; patient P3, peptide 1 μg/ml): 20 SFU
- significant SFU as a percentage of maximal peptide SFU (PBMC [1]; patient P3, peptide 1 μg/ml): * (*: 20-40%)
- IFN-γ ELISpot response (raw SFU) (PBMC [1]; patient P3, peptide 10 μg/ml): 31 SFU
- significant SFU as a percentage of maximal peptide SFU (PBMC [1]; patient P3, peptide 10 μg/ml): ** (**: 40-70%)
- IFN-γ ELISpot response (raw SFU) (PBMC [1]; patient P3, peptide 100 μg/ml): 2 SFU
- IFN-γ ELISpot response (raw SFU) (PBMC [1]; patient P11, peptide 1 μg/ml): 2 SFU
- IFN-γ ELISpot response (raw SFU) (PBMC [1]; patient P11, peptide 10 μg/ml): 0 SFU
- IFN-γ ELISpot response (raw SFU) (PBMC [1]; patient P11, peptide 100 μg/ml): 0 SFU
- IFN-γ ELISpot response (raw SFU) (PBMC [1]; patient P12, peptide 1 μg/ml): 4 SFU
- IFN-γ ELISpot response (raw SFU) (PBMC [1]; patient P12, peptide 10 μg/ml): 3 SFU
- IFN-γ ELISpot response (raw SFU) (PBMC [1]; patient P12, peptide 100 μg/ml): 2 SFU
- IFN-γ ELISpot response (raw SFU) (PBMC [1]; patient P13, peptide 50 μg/ml): 9 SFU
- IFN-γ ELISpot response (SFU) (Patient 2 TCC-01; [3]): 2 SFU
- IFN-γ ELISpot response (SFU) (Patient 6 TCC-01; [4]): 1 SFU
- rank of TCC response among homologous peptides (Patient 2 TCC-02; Patient 2 TCC-02 (FIG. 2)): greatest response
- IFN-γ ELISpot response (SFU) (Patient 2 TCC-02; [5]): 284 SFU
- significant SFU as a percentage of maximal peptide SFU (Patient 2 TCC-02; [5]): *** (***: >70%)
- IFN-γ ELISpot response (SFU) (Patient 8 TCC-01): 0 SFU
- IFN-γ ELISpot response (SFU) (Patient 2 TCC-03): 0 SFU

Sequence: PEQPFPEQPQPYPQQP (not fully specified (C-terminus))
- IFN-γ ELISpot response (raw SFU) (Patient 9 TCC-01): 0 SFU
- IFN-γ ELISpot response (raw SFU) (Patient 14 TCC-01): 66 SFU
- significant SFU as a percentage of maximal peptide SFU (Patient 14 TCC-01): *** (***: >70%)
- IFN-γ ELISpot response (SFU) (Patient 2 TCC-01; [3]): 151 SFU
- significant SFU as a percentage of maximal peptide SFU (Patient 2 TCC-01; [3]): ** (**: 40-70%)
- IFN-γ ELISpot response (raw SFU) (Patient 2 TCC-01; [6]): 202 SFU
- significant SFU as a percentage of maximal peptide SFU (Patient 2 TCC-01; [6]): ** (**: 40-70%)
- IFN-γ ELISpot response (SFU) (Patient 6 TCC-01; [4]): 59 SFU
- significant SFU as a percentage of maximal peptide SFU (Patient 6 TCC-01; [4]): ** (**: 40-70%)
- IFN-γ ELISpot response (raw SFU) (Patient 6 TCC-01; [7]): 73 SFU
- significant SFU as a percentage of maximal peptide SFU (Patient 6 TCC-01; [7]): *** (***: >70%)
- IFN-γ ELISpot response (SFU) (Patient 2 TCC-02; [5]): 5 SFU
- IFN-γ ELISpot response (raw SFU) (Patient 9 TCC-02): 0 SFU
- IFN-γ ELISpot response (SFU) (Patient 8 TCC-01): 145 SFU
- significant SFU as a percentage of maximal peptide SFU (Patient 8 TCC-01): *** (***: >70%)
- IFN-γ ELISpot response (SFU) (Patient 2 TCC-03): 159 SFU
- significant SFU as a percentage of maximal peptide SFU (Patient 2 TCC-03): *** (***: >70%)
- IFN-γ ELISpot response (raw SFU) (Patient 10 TCC-01): 3 SFU

Sequence: LQPFPQPELPYPQPQ [reference compound]
- IFN-γ ELISpot response (raw SFU) (Patient 9 TCC-01): 287 SFU
- significant SFU as a percentage of maximal peptide SFU (Patient 9 TCC-01): *** (***: >70%)
- IFN-γ ELISpot response (raw SFU) (Patient 14 TCC-01): 22 SFU
- IFN-γ ELISpot response (raw SFU) (Patient 2 TCC-01; [6]): 0 SFU
- IFN-γ ELISpot response (raw SFU) (Patient 6 TCC-01; [7]): 2 SFU
- IFN-γ ELISpot response (raw SFU) (Patient 9 TCC-02): 240 SFU
- significant SFU as a percentage of maximal peptide SFU (Patient 9 TCC-02): *** (***: >70%)
- IFN-γ ELISpot response (raw SFU) (Patient 10 TCC-01): 39 SFU

Sequence: QPQPYPEQPQPYP ([pGlu]PQPYPEQPQPYP-NH2; SMILES NC(=O)CC[C@H](NC(=O)[C@H](CCC(=O)O)NC(=O)[C@@H]1CCCN1C(=O)[C@H](Cc1ccc(O)cc1)NC(=O)[C@@H]1CCCN1C(=O)[C@H](CCC(N)=O)NC(=O)[C@@H]1CCCN1C(=O)[C@@H]1CCC(=O)N1)C(=O)N1CCC[C@H]1C(=O)N[C@@H](CCC(N)=O)C(=O)N1CCC[C@H]1C(=O)N[C@@H](Cc1ccc(O)cc1)C(=O)N1CCC[C@H]1C(N)=O)
- responses compared with DQ2.5-hor-3a responses (PBMC [2]; 2/3 patients, after barley challenge (FIG. 1b)): almost equivalent
- response following barley challenge (PBMC [2]; 3 oats responders, titrating concentrations (FIG. 1b)): responded to all three peptides to varying degrees
- responses compared with DQ2.5-ave-1c responses (PBMC [2]; third patient, after barley challenge (FIG. 1b)): equivalent
- IFN-γ ELISpot response (raw SFU) (Patient 9 TCC-01): 1 SFU
- IFN-γ ELISpot response (raw SFU) (Patient 14 TCC-01): 27 SFU
- significant SFU as a percentage of maximal peptide SFU (Patient 14 TCC-01): * (*: 20-40%)
- IFN-γ ELISpot response (SFU) (Patient 2 TCC-01; [3]): 232 SFU
- significant SFU as a percentage of maximal peptide SFU (Patient 2 TCC-01; [3]): *** (***: >70%)
- IFN-γ ELISpot response (raw SFU) (Patient 2 TCC-01; [6]): 316 SFU
- significant SFU as a percentage of maximal peptide SFU (Patient 2 TCC-01; [6]): *** (***: >70%)
- IFN-γ ELISpot response (SFU) (Patient 6 TCC-01; [4]): 86 SFU
- significant SFU as a percentage of maximal peptide SFU (Patient 6 TCC-01; [4]): *** (***: >70%)
- IFN-γ ELISpot response (raw SFU) (Patient 6 TCC-01; [7]): 52 SFU
- significant SFU as a percentage of maximal peptide SFU (Patient 6 TCC-01; [7]): ** (**: 40-70%)
- IFN-γ ELISpot response (SFU) (Patient 2 TCC-02; [5]): 1 SFU
- IFN-γ ELISpot response (raw SFU) (Patient 9 TCC-02): 0 SFU
- IFN-γ ELISpot response (SFU) (Patient 8 TCC-01): 175 SFU
- significant SFU as a percentage of maximal peptide SFU (Patient 8 TCC-01): *** (***: >70%)
- IFN-γ ELISpot response (SFU) (Patient 2 TCC-03): 132 SFU
- significant SFU as a percentage of maximal peptide SFU (Patient 2 TCC-03): *** (***: >70%)
- IFN-γ ELISpot response (raw SFU) (Patient 10 TCC-01): 3 SFU

Sequence: QPFPQPEQPFPWQP ([pGlu]PFPQPEQPFPWQP-NH2; SMILES NC(=O)CC[C@H](NC(=O)[C@H](Cc1c[nH]c2ccccc12)NC(=O)[C@@H]1CCCN1C(=O)[C@H](Cc1ccccc1)NC(=O)[C@@H]1CCCN1C(=O)[C@H](CCC(N)=O)NC(=O)[C@H](CCC(=O)O)NC(=O)[C@@H]1CCCN1C(=O)[C@H](CCC(N)=O)NC(=O)[C@@H]1CCCN1C(=O)[C@H](Cc1ccccc1)NC(=O)[C@@H]1CCCN1C(=O)[C@@H]1CCC(=O)N1)C(=O)N1CCC[C@H]1C(N)=O) [wheat gliadin peptide containing DQ2.5-glia-ω1 and DQ2.5-glia-ω2, reference compound]
- IFN-γ ELISpot response (raw SFU) (Patient 9 TCC-01): 1 SFU
- IFN-γ ELISpot response (raw SFU) (Patient 14 TCC-01): 20 SFU
- IFN-γ ELISpot response (raw SFU) (Patient 2 TCC-01; [6]): 2 SFU
- IFN-γ ELISpot response (raw SFU) (Patient 6 TCC-01; [7]): 1 SFU
- IFN-γ ELISpot response (raw SFU) (Patient 9 TCC-02): 0 SFU
- IFN-γ ELISpot response (raw SFU) (Patient 10 TCC-01): 205 SFU
- significant SFU as a percentage of maximal peptide SFU (Patient 10 TCC-01): *** (***: >70%)
